Measurements published in US10053477B2, “Spirocyclic aryl phosphorus oxide and aryl phosphorus sulfide” (QILU PHARMACEUTICAL CO., LTD., priority 2014, dated 2018).

How the values were obtained:
ALK L1196M = target: T1, ALK L1196M (Homo sapiens, UniProt Q9UM73, L1196M); test: ALK L1196M enzymatic inhibition (HTRF); type: biochemical; settings: 30 μM ATP
T1 construct: purchased Carna Biosciences (Japan)
Description: (§1) Enzyme: ALK wild-type, ALK C1156Y and ALK L1196M supplied by Carna Biosciences (Japan), EGFR T790M/L858R supplied by Life technology (Madison, Wis.).
(§2) HTRF kit: supplied by Cis-Bio International, with Eu-marked TK1 antibody, XL665- and biotin-labelled TK1 polypeptide substrates.
Reaction buffer: 50 mM Hepes (pH7.5), 10 mM MgCl2, 0.01 mM NaV3VO4.
(§3) Incubation was carried out for 60 minutes at room temperature. Detection was by Envision.

[1] = system: LU-01-0319 xenotransplantation (PDX) from lung cancer patients; test: In vivo efficacy, LU-01-0319 xenotransplantation (PDX) from lung cancer patients; design: species or system BALB/c nude mice; settings: 10 mg/kg orally everyday
Description: BALB/c nude mice, female, 6 to 8 weeks, about 18 to 22 g bodyweight, was kept in a special environment without pathogens, and a single ventilated cage (5 mice per cage). Beddings and water in all the cages were disinfected before use. All the animal had free access to standard authorized commercially available lab diet. 80 mice were supplied by Shanghai BK Laboratory Animal Co., LTD for study. Each mouse was subcutaneously implanted tumor tissue (20-30 mm^3) at right flank for growth of tumor. When the average tumor volume reached about 250-300 mm^3, the assay started. Test compounds were delivered orally everyday, 10 mg/kg. Tumor size was measured with two-dimensional caliper every 3 days, size was recorded by mm^3, and calculated by the following formula: V=V=0.5a×b2, where a and b are respectively the long diameter and short diameter length of the tumor. The antitumor efficacy was determined by dividing the average increased tumor volume in compound-treated animal by the average increased tumor volume in untreated animal.

ALK C1156Y = target: T2, ALK C1156Y (Homo sapiens, UniProt Q9UM73, C1156Y); test: ALK C1156Y enzymatic inhibition (HTRF); type: biochemical; settings: 30 μM ATP
T2 construct: purchased Carna Biosciences (Japan)
T2 sequence (Q9UM73 19-1620 C1156Y): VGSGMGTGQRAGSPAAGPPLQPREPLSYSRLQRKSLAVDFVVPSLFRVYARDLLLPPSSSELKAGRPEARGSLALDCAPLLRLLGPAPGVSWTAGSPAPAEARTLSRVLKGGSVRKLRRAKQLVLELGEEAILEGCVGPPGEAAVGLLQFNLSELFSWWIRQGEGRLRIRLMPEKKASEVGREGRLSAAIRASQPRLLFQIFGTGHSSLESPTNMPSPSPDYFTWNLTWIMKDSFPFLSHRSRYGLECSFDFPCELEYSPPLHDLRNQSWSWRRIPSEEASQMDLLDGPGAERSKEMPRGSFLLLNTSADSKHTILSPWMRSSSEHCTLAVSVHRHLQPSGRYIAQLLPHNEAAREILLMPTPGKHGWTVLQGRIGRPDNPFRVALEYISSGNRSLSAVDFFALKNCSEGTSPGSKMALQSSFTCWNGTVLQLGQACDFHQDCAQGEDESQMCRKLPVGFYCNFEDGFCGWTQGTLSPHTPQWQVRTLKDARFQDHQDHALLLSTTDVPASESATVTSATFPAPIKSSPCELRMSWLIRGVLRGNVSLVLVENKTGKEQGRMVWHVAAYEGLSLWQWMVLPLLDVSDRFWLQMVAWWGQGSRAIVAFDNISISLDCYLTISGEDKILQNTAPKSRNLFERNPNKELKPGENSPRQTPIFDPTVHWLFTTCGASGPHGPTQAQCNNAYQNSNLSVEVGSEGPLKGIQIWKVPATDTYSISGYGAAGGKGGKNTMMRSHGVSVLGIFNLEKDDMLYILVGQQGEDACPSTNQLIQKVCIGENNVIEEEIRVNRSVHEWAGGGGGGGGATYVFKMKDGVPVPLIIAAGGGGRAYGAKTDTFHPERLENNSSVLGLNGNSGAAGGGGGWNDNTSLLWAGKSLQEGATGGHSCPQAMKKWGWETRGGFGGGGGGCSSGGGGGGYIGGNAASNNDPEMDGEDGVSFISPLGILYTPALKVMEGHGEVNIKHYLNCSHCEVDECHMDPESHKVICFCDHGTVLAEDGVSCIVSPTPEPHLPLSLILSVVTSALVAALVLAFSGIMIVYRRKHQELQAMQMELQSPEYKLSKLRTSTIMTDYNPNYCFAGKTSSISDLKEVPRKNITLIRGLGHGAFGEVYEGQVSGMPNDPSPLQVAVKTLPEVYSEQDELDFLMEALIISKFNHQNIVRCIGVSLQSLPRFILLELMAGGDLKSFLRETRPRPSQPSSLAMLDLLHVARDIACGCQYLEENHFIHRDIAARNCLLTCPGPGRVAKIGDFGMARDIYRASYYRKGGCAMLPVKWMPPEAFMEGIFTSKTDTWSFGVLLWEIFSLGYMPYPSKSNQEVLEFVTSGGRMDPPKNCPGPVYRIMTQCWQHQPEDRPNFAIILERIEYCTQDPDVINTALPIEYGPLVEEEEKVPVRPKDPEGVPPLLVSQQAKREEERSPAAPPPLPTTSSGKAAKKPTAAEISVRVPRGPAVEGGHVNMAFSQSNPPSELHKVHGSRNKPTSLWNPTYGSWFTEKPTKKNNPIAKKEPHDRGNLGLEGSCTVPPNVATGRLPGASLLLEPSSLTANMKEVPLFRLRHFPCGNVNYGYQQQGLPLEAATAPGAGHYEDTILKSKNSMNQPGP
Description: as §1, §2
Reaction buffer: 50 mM Hepes (pH7.5), 10 mM MgCl2, 0.01 mM NaV3VO4. […] Reaction was reacted at room temperature for 60 minutes.
as §3

ALK wild-type = target: T3, ALK wild-type (Homo sapiens, UniProt Q9UM73); test: ALK wild-type enzymatic inhibition (HTRF); type: biochemical; settings: 30 μM ATP
T3 construct: purchased Carna Biosciences (Japan)
T3 sequence (Q9UM73 19-1620): as the sequence (Q9UM73 19-1620 C1156Y) above, with Y1138C counted along it
Description: as §1, §2
10 μl wild-type ALK enzyme reaction mixture system: 0.5 nM wild-type ALK, 1 μM biotin-TK1 peptide, 30 μM ATP. Reaction buffer: 50 mM Hepes (pH7.5), 10 mM MgCl2, 0.01 mM NaV3VO4.
as §3

[2] = system: LU-01-0015 xenotransplantation (PDX) from lung cancer patients; test: In vivo efficacy, LU-01-0015 xenotransplantation (PDX) from lung cancer patients; design: species or system BALB/c nude mice; settings: 25 mg/kg orally everyday
Procedure, shortened: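 Female BALB/c nude mice carried subcutaneous LU-01-0015 lung cancer PDX fragments; dosing began at mean tumor volume of about 250–300 mm^3. Compounds were given orally at 25 mg/kg daily. Caliper volumes (0.5a×b²) were taken every 3 days; efficacy is the mean tumor volume increase in treated mice relative to untreated mice.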

EGFR T790M/L858R = target: T4, EGFR T790M/L858R (Homo sapiens, UniProt P00533, L858R/T790M); test: EGFR T790M/L858R enzymatic inhibition (HTRF); type: biochemical; settings: 20 μM ATP
T4 construct: purchased Life technology (Madison, Wis.)
T4 sequence (P00533 25-1210 T790M/L858R): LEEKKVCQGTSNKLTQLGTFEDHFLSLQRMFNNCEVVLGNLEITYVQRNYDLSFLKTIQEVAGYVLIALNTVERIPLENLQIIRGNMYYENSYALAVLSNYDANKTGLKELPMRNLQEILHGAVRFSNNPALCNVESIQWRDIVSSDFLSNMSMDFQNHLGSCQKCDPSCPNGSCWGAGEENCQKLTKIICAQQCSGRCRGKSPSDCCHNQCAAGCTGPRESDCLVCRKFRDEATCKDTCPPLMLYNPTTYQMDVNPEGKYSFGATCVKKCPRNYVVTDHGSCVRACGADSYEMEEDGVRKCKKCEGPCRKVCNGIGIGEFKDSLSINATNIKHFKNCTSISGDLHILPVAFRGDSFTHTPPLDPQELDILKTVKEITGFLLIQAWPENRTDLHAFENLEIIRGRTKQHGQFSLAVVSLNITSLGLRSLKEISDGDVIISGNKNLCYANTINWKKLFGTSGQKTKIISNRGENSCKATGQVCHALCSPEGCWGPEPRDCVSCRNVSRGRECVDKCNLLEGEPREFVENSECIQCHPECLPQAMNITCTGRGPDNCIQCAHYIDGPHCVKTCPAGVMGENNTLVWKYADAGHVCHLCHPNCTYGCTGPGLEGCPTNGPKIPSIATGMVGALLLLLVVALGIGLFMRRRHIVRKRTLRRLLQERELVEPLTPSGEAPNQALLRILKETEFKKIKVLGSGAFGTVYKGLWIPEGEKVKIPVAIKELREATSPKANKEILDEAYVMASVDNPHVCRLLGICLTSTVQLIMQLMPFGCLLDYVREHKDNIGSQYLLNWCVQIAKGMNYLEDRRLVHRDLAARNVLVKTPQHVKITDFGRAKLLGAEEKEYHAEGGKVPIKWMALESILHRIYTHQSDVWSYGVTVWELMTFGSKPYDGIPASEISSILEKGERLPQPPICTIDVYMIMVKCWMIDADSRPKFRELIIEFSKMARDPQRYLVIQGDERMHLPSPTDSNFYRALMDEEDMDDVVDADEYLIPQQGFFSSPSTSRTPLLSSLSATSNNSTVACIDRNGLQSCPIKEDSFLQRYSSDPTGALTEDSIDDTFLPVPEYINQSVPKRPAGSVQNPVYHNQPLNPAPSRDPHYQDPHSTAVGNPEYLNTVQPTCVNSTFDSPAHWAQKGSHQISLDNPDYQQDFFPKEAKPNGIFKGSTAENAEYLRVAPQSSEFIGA
Procedure, shortened: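 HTRF with 0.08 nM EGFR T790M/L858R, 1 μM biotin-TK1 peptide and 20 μM ATP in 50 mM Hepes pH 7.5, 10 mM MgCl2, 60 min at room temperature. Compound 11-point 3-fold series, final […] to 0.017 nM. Detection used Eu-anti-TK1 antibody (2 nM) plus XL665 (62.5 nM), 60 min.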

[3] = system: LU-01-0319 Crizotinib resistance model; test: In vivo anti-tumor efficacy, Crizotinib resistant LU-01-0319 xenotransplantation (PDX) tumor; design: species or system BALB/c nude mice
Description: LU-01-0319 xenotransplantation tumor models initially obtained from clinical sample through surgical resection were implanted into nude mice, which was defined as a batch of P0 (LU-01-0319-P0). The next batch was defined as P1 (LU-01-0319-P1) which was implanted tumors from P0. FP3 was regained from P2, the next batch was defined as FP4 which was implanted tumors from FP3. […] The continuous increasing tumors were defined as LU-01-0319 antitumor models. BALB/c nude mice, female, 6 to 8 weeks, about 18 to 22 g bodyweight, 75 mice were used for study, supplied by Shanghai BK Laboratory Animal Co., LTD. Tumour biopsies (about 30 mm^3) of LU-01-0319R FP6 were implanted subcutaneously on right side of each mouse for growth of tumor. […] Dose of Crizotinib was appropriately varied depending on the tumor size. When average tumor volume reached about ˜500 mm^3, the assay began. Once a day the compounds to be tested were orally administered. Tumor size were measured twice a week with a caliper at two dimensions, and calculated with the following formula: V=0.5a×b2, where a and b are respectively long diameter and short diameter of the tumor. The antitumor efficacy was determined by dividing the average increased tumor volume in compound-treated animal by the average increased tumor volume in untreated animal.

T1 sequence (Q9UM73 19-1620 L1196M): as the sequence (Q9UM73 19-1620 C1156Y) above, with Y1138C, L1178M counted along it

COc1cc(N2CCC3(CCN(C)CC3)CC2)ccc1Nc1ncc(Cl)c(Nc2ccccc2P(C)(C)=O)n1 [Compound 9, (2-((5-Chloro-2-((2-methoxy-4-(9-methyl-3,9-diazaspiro[5.5]undecan-3-yl)phenyl)amino)pyrimidin-4-yl)amino)phenyl)dimethyl phosphine oxide]
IC50 (ALK L1196M): 1 to 100 nM
Tumor volume ([1]; 0 days): 371 mm^3
Tumor volume ([1]; 2 days): 359 mm^3
Tumor volume ([1]; 6 days): 369 mm^3
Tumor volume ([1]; 9 days): 301 mm^3
Tumor volume ([1]; 13 days): 305 mm^3
Tumor volume ([1]; 16 days): 291 mm^3
Tumor volume ([1]; 20 days): 203 mm^3
Tumor volume ([1]; 23 days): 172 mm^3
IC50 (ALK C1156Y): 1 to 100 nM
IC50 (ALK wild-type): 1 to 100 nM
Tumor volume ([2]; 3 days): 158 mm^3
Tumor volume ([2]; 6 days): 108 mm^3
Tumor volume ([2]; 9 days): 82 mm^3
Tumor volume ([2]; 12 days): 58 mm^3
Tumor volume ([2]; 16 days): 48 mm^3
Tumor volume ([2]; 19 days): 46 mm^3
Tumor volume ([2]; 23 days): 43 mm^3
IC50 (EGFR T790M/L858R): 1 to 100 nM
Tumor volume ([3]; 0 day, dosage 3 mg/Kg orally once a day): 502 mm^3
Tumor volume ([3]; 0 day, dosage 10 mg/Kg orally once a day): 502 mm^3
Tumor volume ([3]; 3 days, dosage 3 mg/Kg orally once a day): 722 mm^3
Tumor volume ([3]; 3 days, dosage 10 mg/Kg orally once a day): 557 mm^3
Tumor volume ([3]; 7 days, dosage 3 mg/Kg orally once a day): 859 mm^3
Tumor volume ([3]; 7 days, dosage 10 mg/Kg orally once a day): 416 mm^3
Tumor volume ([3]; 10 days, dosage 3 mg/Kg orally once a day): 1101 mm^3
Tumor volume ([3]; 10 days, dosage 10 mg/Kg orally once a day): 261 mm^3
Tumor volume ([3]; 13 days, dosage 3 mg/Kg orally once a day): 1218 mm^3
Tumor volume ([3]; 13 days, dosage 10 mg/Kg orally once a day): 196 mm^3
Tumor volume ([3]; 17 days, dosage 3 mg/Kg orally once a day): 1441 mm^3
Tumor volume ([3]; 17 days, dosage 10 mg/Kg orally once a day): 133 mm^3
Tumor volume ([3]; 19 days, dosage 3 mg/Kg orally once a day): 1521 mm^3
Tumor volume ([3]; 19 days, dosage 10 mg/Kg orally once a day): 102 mm^3
